Literature values as cited in patent US20130090296A1, “INJECTABLE FORMULATION OF A MACROCYCLIC LACTONE AND LEVAMISOLE” (priority 2010, published 2013).

Conditions: previously found

pH required for stability: less than 4
Compound: c1ccc([C@H]2CN3CCSC3=N2)cc1 [levamisole]
